Measured values reported in patent publication US20120190752A1, “EXO-S-MECAMYLAMINE METHOD, USE, AND COMPOUND FOR TREATMENT” (Targacept Inc., priority 2009, published 2012).

Tested on: subjects with major depressive disorder (MDD) who were inadequate responders to citalopram
Test: QIDS-SR, Phase 2b add-on trial
Assay type: in vivo, human
Excerpt: The 30 item Inventory of Depressive Symptomatology (IDS) (Rush et al. 1986, 1996) and the 16 item Quick Inventory of Depressive Symptomatology (QIDS) (Rush et al. 2003) are designed to assess the severity of depressive symptoms. Both the IDS and the […] are available in the clinician (IDS-C30 and QIDS-C16) and self-rated versions (IDS-SR30 and QIDS-SR16). The IDS and QIDS assess all the criterion symptom domains designated by the American Psychiatry Association Diagnostic and Statistical Manual of Mental Disorders—4th edition (DSM-IV) (APA 1994) to diagnose a major depressive episode. These assessments can be used to screen for depression, although they have been used predominantly as measures of symptom severity. The seven day period prior to assessment is the usual time frame for assessing symptom severity. The […] and QIDS-SR16 cover only the nine diagnostic symptom domains used to characterize a major depressive episode, without items to assess atypical, melancholic or their commonly associated symptoms. All 16 items on the QIDS are included within the IDS. The IDS-C30 and […] include the criterion symptoms, as well as commonly associated symptoms (e.g. anxiety, irritability) and items relevant to melancholic, or atypical symptom features. Both versions are sensitive to change, with medications, psychotherapy, or somatic treatments, making them useful for both research and clinical purposes. The psychometric properties of both the IDS and QIDS, have both been established in various study samples. See Rush A J, Trivedi M H, Ibrahim H M, et al., The 16-item Quick Inventory of Depressive Symptomatology (QIDS), Clinician Rating (QIDS-C), and Self-Report (QIDS-SR): a psychometric evaluation in patients with chronic major depression. Biol Psychiatry.; 54: 573-583 (2003).
In more detail, a multi-center double-blind, randomized, placebo-controlled, parallel group, flexible dose titration study of TC-5214 as adjunctive therapy in subjects with major depressive disorder (MDD) who were inadequate responders to citalopram was conducted in centers in the US and India. The study consisted of a screening period, baseline/washout period, open-label phase, double-blind phase, and a follow-up visit. Subject participation in the study could continue for up to 16 weeks of treatment. Following a washout period of up to 28 days for other antidepressants, subjects with MDD and a MADRS total score >/=28 and a Clinical Global Impression-Severity (CGI-S) score >/=4 were enrolled on Day 1 into an open-label citalopram-only phase of the study. This phase lasted 8 weeks, with citalopram (CIT) dose increased from a once-daily dose of 20 mg (Day 1 through Week 4) to 40 mg (Week 4 through Week 8). A total of 579 subjects entered the open-label citalopram phase. At Week 8, subjects who tolerated 40 mg CIT, but whose MADRS score was reduced <50% from baseline and no lower than 17, and CGI-S≧4, were considered inadequate responders. These subjects (n=270) were randomized in a double-blind fashion to receive either placebo or TC-5214-23 as add-on therapy to continued CIT. The double-blind phase of the study also lasted 8 weeks (Week 8 to Week 16). Study drug, TC-5214-23 or placebo, was started at 2 mg daily (1 mg twice per day [BID] dosing), added on to continuing CIT (40 mg PO qd). After 2 weeks of treatment, the dose of TC-5214 could be increased to 4 mg (2 mg BID) or continued unchanged, with up-titration based upon good tolerability and inadequate therapeutic response. After a further 2 weeks, the dose of TC-5214 could be increased again to 8 mg (4 mg BID) if judged appropriate by the investigator, based upon good tolerability and inadequate therapeutic response. At any time during the double-blind phase of the study, placebo or TC-5214-23 could be reduced to the previous dose level following the emergence of unacceptable adverse events (AEs). […] At this follow-up, any signs or symptoms of relapse were evaluated. […]

[1] = ITT N=265, week of double-blind treatment
[2] = ITT and PP, at every assessment week, result in words
[3] = ITT, Double Blind Week 18 (Follow-up)
[4] = ITT, Double Blind Week 18 LOCF (Follow-up), change from Week 16
[5] = PP, Double Blind Week 16 LOCF (change from Week 8)
[6] = PP, Double Blind Week 18 (Follow-up)
[7] = PP, Double Blind Week 18 LOCF (Follow-up), change from Week 16

CNC1(C)C2CCC(C2)C1(C)C (stereo in doubt) [TC-5214, (S)—N,2,3,3-tetramethylnorbornan-2-amine]
onset of separation from placebo, subject rated remission QIDS-SR≦5 (FIG. 2) [1]: ≤ 2 week | onset of separation from placebo, subject rated response QIDS-SR≧50% (FIG. 3) [1]: ≤ 1 week | QIDS-SR score change from baseline compared with placebo (ITT and PP populations, result in words): statistically significant decreases (improvements) | QIDS remission proportion compared with placebo [2]: higher proportion of subjects with remission | QIDS responders (reduction from baseline ≧50%) proportion compared with placebo [2]: higher proportion of responders | QIDS reduction from baseline ≧50%: Subjects with Response (number) (ITT, Double Blind Week 10): 29 | QIDS reduction from baseline ≧50%: Subjects with Response (percentage) (ITT, Double Blind Week 10): 22% | QIDS reduction from baseline ≧50%: Subjects without Response (number) (ITT, Double Blind Week 10): 104 | QIDS reduction from baseline ≧50%: Subjects without Response (percentage) (ITT, Double Blind Week 10): 78% | QIDS score ≦5: Subjects with Remission (number) (ITT, Double Blind Week 10): 19 | QIDS score ≦5: Subjects with Remission (percentage) (ITT, Double Blind Week 10): (14%) | QIDS score ≦5: Subjects without Remission (number) (ITT, Double Blind Week 10): 114 | QIDS score ≦5: Subjects without Remission (percentage) (ITT, Double Blind Week 10): (86%) | QIDS reduction from baseline ≧50%: Subjects with Response (number) (ITT, Double Blind Week 12): 44 | QIDS reduction from baseline ≧50%: Subjects with Response (percentage) (ITT, Double Blind Week 12): 33% | QIDS reduction from baseline ≧50%: Subjects without Response (number) (ITT, Double Blind Week 12): 89 | QIDS reduction from baseline ≧50%: Subjects without Response (percentage) (ITT, Double Blind Week 12): 67% | QIDS score ≦5: Subjects with Remission (number) (ITT, Double Blind Week 12): 25 | QIDS score ≦5: Subjects with Remission (percentage) (ITT, Double Blind Week 12): (19%) | QIDS score ≦5: Subjects without Remission (number) (ITT, Double Blind Week 12): 108 | QIDS score ≦5: Subjects without Remission (percentage) (ITT, Double Blind Week 12): (81%) | QIDS reduction from baseline ≧50%: Subjects with Response (number) (ITT, Double Blind Week 14): 67 | QIDS reduction from baseline ≧50%: Subjects with Response (percentage) (ITT, Double Blind Week 14): 50% | QIDS reduction from baseline ≧50%: Subjects without Response (number) (ITT, Double Blind Week 14): 66 | QIDS reduction from baseline ≧50%: Subjects without Response (percentage) (ITT, Double Blind Week 14): 50% | QIDS score ≦5: Subjects with Remission (number) (ITT, Double Blind Week 14): 45 | QIDS score ≦5: Subjects with Remission (percentage) (ITT, Double Blind Week 14): (34%) | QIDS score ≦5: Subjects without Remission (number) (ITT, Double Blind Week 14): 88 | QIDS score ≦5: Subjects without Remission (percentage) (ITT, Double Blind Week 14): (66%) | QIDS reduction from baseline ≧50%: Subjects with Response (number) (ITT, Double Blind Week 16): 88 | QIDS reduction from baseline ≧50%: Subjects with Response (percentage) (ITT, Double Blind Week 16): 66% | QIDS reduction from baseline ≧50%: Subjects without Response (number) (ITT, Double Blind Week 16): 45 | QIDS reduction from baseline ≧50%: Subjects without Response (percentage) (ITT, Double Blind Week 16): 34% | QIDS score ≦5: Subjects with Remission (number) (ITT, Double Blind Week 16): 60 | QIDS score ≦5: Subjects with Remission (percentage) (ITT, Double Blind Week 16): (45%) | QIDS score ≦5: Subjects without Remission (number) (ITT, Double Blind Week 16): 73 | QIDS score ≦5: Subjects without Remission (percentage) (ITT, Double Blind Week 16): (55%) | QIDS-SR Mean Difference between TC-5214 and Placebo (ITT, Double Blind Week 16 LOCF (change from Week 8)): 3.79 | QIDS reduction from baseline ≧50%: Subjects with Response (number) [3]: 92 | QIDS reduction from baseline ≧50%: Subjects with Response (percentage) [3]: 69% | QIDS reduction from baseline ≧50%: Subjects without Response (number) [3]: 41 | QIDS reduction from baseline ≧50%: Subjects without Response (percentage) [3]: 31% | QIDS score ≦5: Subjects with Remission (number) [3]: 75 | QIDS score ≦5: Subjects with Remission (percentage) [3]: (56%) | QIDS score ≦5: Subjects without Remission (number) [3]: 58 | QIDS score ≦5: Subjects without Remission (percentage) [3]: (44%) | QIDS-SR Adjusted Mean change [4]: −0.52 | QIDS-SR Mean Difference between TC-5214 and Placebo [4]: 0.58 | QIDS-SR Difference vs Placebo + CIT (ITT, Week 8 to Week 16 LOCF): −3.76 | QIDS-SR Adj. Mean change (ITT, change from Week 8 (double-blind baseline) to Week 16 LOCF, add-on to citalopram): −8.07 | QIDS-SR score change at Week 18 compared with placebo (PP population, Week 18, result in words): statistically significant decrease | QIDS reduction from baseline ≧50%: Subjects with Response (number) (PP, Double Blind Week 10): 25 | QIDS reduction from baseline ≧50%: Subjects with Response (percentage) (PP, Double Blind Week 10): 22% | QIDS reduction from baseline ≧50%: Subjects without Response (number) (PP, Double Blind Week 10): 88 | QIDS reduction from baseline ≧50%: Subjects without Response (percentage) (PP, Double Blind Week 10): 78% | QIDS score ≦5: Subjects with Remission (number) (PP, Double Blind Week 10): 17 | QIDS score ≦5: Subjects with Remission (percentage) (PP, Double Blind Week 10): 15% | QIDS score ≦5: Subjects without Remission (number) (PP, Double Blind Week 10): 96 | QIDS score ≦5: Subjects without Remission (percentage) (PP, Double Blind Week 10): 85% | QIDS reduction from baseline ≧50%: Subjects with Response (number) (PP, Double Blind Week 12): 40 | QIDS reduction from baseline ≧50%: Subjects with Response (percentage) (PP, Double Blind Week 12): 35% | QIDS reduction from baseline ≧50%: Subjects without Response (number) (PP, Double Blind Week 12): 73 | QIDS reduction from baseline ≧50%: Subjects without Response (percentage) (PP, Double Blind Week 12): 65% | QIDS score ≦5: Subjects with Remission (number) (PP, Double Blind Week 12): 23 | QIDS score ≦5: Subjects with Remission (percentage) (PP, Double Blind Week 12): 20% | QIDS score ≦5: Subjects without Remission (number) (PP, Double Blind Week 12): 90 | QIDS score ≦5: Subjects without Remission (percentage) (PP, Double Blind Week 12): 80% | QIDS reduction from baseline ≧50%: Subjects with Response (number) (PP, Double Blind Week 14): 59 | QIDS reduction from baseline ≧50%: Subjects with Response (percentage) (PP, Double Blind Week 14): 52% | QIDS reduction from baseline ≧50%: Subjects without Response (number) (PP, Double Blind Week 14): 54 | QIDS reduction from baseline ≧50%: Subjects without Response (percentage) (PP, Double Blind Week 14): 48% | QIDS score ≦5: Subjects with Remission (number) (PP, Double Blind Week 14): 39 | QIDS score ≦5: Subjects with Remission (percentage) (PP, Double Blind Week 14): 35% | QIDS score ≦5: Subjects without Remission (number) (PP, Double Blind Week 14): 74 | QIDS score ≦5: Subjects without Remission (percentage) (PP, Double Blind Week 14): 65% | QIDS reduction from baseline ≧50%: Subjects with Response (number) (PP, Double Blind Week 16): 80 | QIDS reduction from baseline ≧50%: Subjects with Response (percentage) (PP, Double Blind Week 16): 71% | QIDS reduction from baseline ≧50%: Subjects without Response (number) (PP, Double Blind Week 16): 33 | QIDS reduction from baseline ≧50%: Subjects without Response (percentage) (PP, Double Blind Week 16): 29% | QIDS score ≦5: Subjects with Remission (number) (PP, Double Blind Week 16): 55 | QIDS score ≦5: Subjects with Remission (percentage) (PP, Double Blind Week 16): 49% | QIDS score ≦5: Subjects without Remission (number) (PP, Double Blind Week 16): 58 | QIDS score ≦5: Subjects without Remission (percentage) (PP, Double Blind Week 16): 51% | QIDS-SR Adjusted Mean change [5]: −8.60 | QIDS-SR Mean Difference between TC-5214 and Placebo [5]: 3.90 | QIDS reduction from baseline ≧50%: Subjects with Response (number) [6]: 84 | QIDS reduction from baseline ≧50%: Subjects with Response (percentage) [6]: 74% | QIDS reduction from baseline ≧50%: Subjects without Response (number) [6]: 29 | QIDS reduction from baseline ≧50%: Subjects without Response (percentage) [6]: 26% | QIDS score ≦5: Subjects with Remission (number) [6]: 69 | QIDS score ≦5: Subjects with Remission (percentage) [6]: 61% | QIDS score ≦5: Subjects without Remission (number) [6]: 44 | QIDS score ≦5: Subjects without Remission (percentage) [6]: 39% | QIDS-SR Adjusted Mean change [7]: −0.65 | QIDS-SR Mean Difference between TC-5214 and Placebo [7]: 0.84
